Test results published in patent US20260130845A1, “KETAMINE NASAL SPRAY FORMULATION AND METHODS OF USE” (INESKET LLC, priority 2024, published 2026).

How the values were obtained:
[1] = Open-label absolute bioavailability and pharmacokinetic study of intranasal ketamine in healthy volunteers; assay type: in vivo, human; conditions: hydro-alcoholic composition, minimum-maximum
Description: This was an open-label study in 25 healthy volunteers. Subjects received single doses of ketamine by intravenous (IV) injection (20 mg), intramuscular (IM) injection (20 mg), or intranasal (IN) administration (20 mg, 40 mg and 80 mg).
Blood samples for the measurement of plasma concentrations of (R)- and (S)-ketamine and (R)- and (S)-norketamine were collected pre-dose and at 0.033, 0.083, 0.167, 0.25, 0.333, 0.5, 0.75, 1, 1.25, 2, 2.5, 3, 4, 6, 8, 12, 16, and 24 hours post-dose for each study period.
All estimates for the parent and metabolite were consistent within each formulation or dose for the racemate, (R)-, and (S)-enantiomers. After IN administration, the estimates were slightly higher for the metabolite than the parent.

[2] = acidic pH near 4.5
Source text: A Buffer may be used to control the pH of the nasal spray solution at, or near 4.5. […] Also, the local pH value inside the nasal cavity directly influences the rate and extent of drug absorption. […] Additionally, maintaining pH at or above 4.0 helps to reduce local nasal tract irritation. The buffer is optional.

## CNC1(c2ccccc2Cl)CCCCC1=O (racemic) [(RS)-Ketamine, 2-(2-chlorophenyl)-2-(methylamino)-cyclohexanone]
[1]; dose 20 mg
  AUC(0-1 hr): 28.7-127 hr′ ng/mL
  AUC(0-4 hr): 60.0-209 hr′ ng/mL
  Tmax: 4.98 to 30 min
[1]; dose 40 mg
  AUC(0-1 hr): 71.4-225 hr′ ng/mL
  AUC(0-4 hr): 160-433 hr′ ng/mL
  Tmax: 10 to 30 min

## CN[C@@]1(c2ccccc2Cl)CCCCC1=O [(R)-Ketamine]
[1]; dose 10 mg
  AUC(0-1 hr): 15.9-70.8 hr′ ng/mL
  AUC(0-4 hr): 33.6-118 hr′ ng/mL
[1]; dose 20 mg
  AUC(0-1 hr): 40.5-129 hr′ ng/mL
  AUC(0-4 hr): 93.0-251 hr′ ng/mL

## CN[C@]1(c2ccccc2Cl)CCCCC1=O [(S)-Ketamine]
[1]; dose 10 mg
  AUC(0-1 hr): 12.8-55.8 hr′ ng/mL
  AUC(0-4 hr): 26.4-90.4 hr′ ng/mL
  Tmax: 5 to 20 min
[1]; dose 20 mg
  AUC(0-1 hr): 30.9-96.7 hr′ ng/mL
  AUC(0-4 hr): 66.9-181 hr′ ng/mL
  Tmax: 10 to 30 min

## CNC1(c2ccccc2Cl)CCCCC1=O.Cl (centres unmarked) [Es/ketamine HCl]
[2]
  stability of solutions: better stability
